Experiment [1] deals with T1, AfUGM (Aspergillus fumigatus, UniProt Q4W1X2). The experiment in a line: Kinetic isotope effect on flavin reduction of AfUGM with deuterated coenzymes. The format is biochemical.
Experiment [2] addresses T1, AfUGM. Kind of experiment: Stopped-flow kinetics of flavin reduction of AfUGM by NAD. The format is biochemical. Conditions: for kred / Kd / kred/Kd: AfUGM wild type; for kred / Kd: anaerobic, 15 °C; for kred: pH 7.0, flavin absorbance 452 nm; for Kd: pH 7.0, from fit of kobs; for kred/Kd: catalytic efficiency.
The target in a further experiment is AfUGM S93A (Aspergillus fumigatus, UniProt Q4W1X2, S93A). The format is biochemical. To be noted: S93A mutant.
The target in the next experiment is AfUGM R91A (Aspergillus fumigatus, UniProt Q4W1X2, R91A). The format is biochemical. To be noted: R91A mutant.
Another experiment concerns the target TcUGM. Conditions: cited from earlier work.
The target of experiment [3] is Mycobacterium tuberculosis UGM (Mycobacterium tuberculosis, UniProt P9WIQ1). Kind of experiment: Reduction of Mycobacterium tuberculosis UGM by NADPH. The format is biochemical. Conditions: estimated (Figure S5).
Setting [4] is: pro-R H atom substituted with D.

Molecules are shown by their SMILES. Several values for one entry are separate records, joined by “and”; a condition that tells them apart may be missing. Equal entries are not always repeated.

The source of these data is PMC3493617 (Journal of the American Chemical Society, 2012).

As to `NC(=O)C1=CN([C@@H]2O[C@H](COP(=O)(O)OP(=O)(O)OC[C@H]3O[C@@H](n4cnc5c(N)ncnc54)[C@H](O)[C@@H]3O)[C@@H](O)[C@H]2O)C=CC1` [NADH], on AfUGM [1] (setting [4]), the “KIE on flavin reduction” value was 6.0 ± 0.7. Moreover, at AfUGM [2], the kred was 0.2 s⁻¹ and 0.172 ± 0.003 s⁻¹; the Kd worked out at 260 ± 20 µM; the kred/Kd was 670 M⁻¹ s⁻¹ and 670 ± 50 M⁻¹ s⁻¹.

For `NC(=O)C1=CN([C@@H]2O[C@H](COP(=O)(O)OP(=O)(O)OC[C@H]3O[C@@H](n4cnc5c(N)ncnc54)[C@H](OP(=O)(O)O)[C@@H]3O)[C@@H](O)[C@H]2O)C=CC1` [NADPH], the “KIE on flavin reduction” value at AfUGM [1] (setting [4]) stood at 3.0 ± 0.1. The Kd at AfUGM S93A was 21 ± 8 µM; at AfUGM [2] it was 25 ± 2 µM; on AfUGM R91A, 330 ± 20 µM; on TcUGM, 98 µM. The “Variational Effect (kred/Kd of variant)/(kred/Kd of AfUGM)” value at AfUGM S93A is recorded as 0.07 ± 0.03; at AfUGM R91A, 0.008 ± 0.001. For the same compound, the kred/Kd was 8000 ± 3000 M⁻¹ s⁻¹ at AfUGM S93A; 120000 M⁻¹ s⁻¹ and 120000 ± 10000 M⁻¹ s⁻¹ on AfUGM [2]; 980 ± 70 M⁻¹ s⁻¹ on AfUGM R91A; 6000 M⁻¹ s⁻¹ in the experiment with TcUGM. Moreover, the kred at AfUGM S93A (anaerobic, 15 °C, pH 7.0) is 0.17 ± 0.01 s⁻¹; on AfUGM [2], 3 s⁻¹ and 2.98 ± 0.078 s⁻¹; at AfUGM R91A (anaerobic, 15 °C, pH 7.0) it was 0.313 ± 0.008 s⁻¹; in the experiment on TcUGM, 0.6 s⁻¹; in experiment [3], 0.00002 s⁻¹. The “catalytic efficiency of AfUGM relative to TcUGM” value at AfUGM [2] (kred/Kd AfUGM vs TcUGM) was 20 times.

Turning to `[2H]C1C=CN(C2OC(COP(=O)(O)OP(=O)(O)OCC3OC(n4cnc5c(N)ncnc54)C(OP(=O)(O)O)C3O)C(O)C2O)C=C1C(N)=O` (stereo not shown) [pro-S NADPD], the “KIE on flavin reduction” value on AfUGM [1] (pro-S deuterated coenzyme used to reduce AfUGM) worked out at 0.93 ± 0.03.
